Data: the ASAP Discovery antiviral challenge data (2025)
In brackets after ≈: the same amount, converted by molar mass.

Tests used:
[1] = human; liver_microsomes
[2] = mdck_mdr1
[3] = not given; remark: listed apart in the source
[4] = mouse; liver_microsomes

**Q.** With `CCOc1cccc(-c2ccc(S(=O)(=O)Nc3ccc(Cl)cc3C(=O)O)cc2)c1` as the compound, how does the logD read?
**A.** The logD was 2.8.

**Q.** What about the microsomal CLint [1] of the same compound?
**A.** The microsomal CLint was 119 µL/min/mg.

**Q.** What about the Papp [2] of the same compound?
**A.** The Papp was 6.22 ×10⁻⁶ cm/s.

**Q.** And the solubility kinetic [3]?
**A.** Its solubility kinetic is 392 µM (≈ 169 µg/mL).

**Q.** With `COc1cc(-c2cc(NC(=O)c3cc(F)cc4[nH]ncc34)cc3c2CNC3)ccn1` as the compound, how does the microsomal CLint [4] read?
**A.** Its microsomal CLint is 260 µL/min/mg.

**Q.** And the logD?
**A.** Its logD is 2.

**Q.** And the Papp [2]?
**A.** The Papp was 0.788 ×10⁻⁶ cm/s.

**Q.** And the solubility kinetic [3]?
**A.** Its solubility kinetic is 180 µM (≈ 72.6 µg/mL).

**Q.** Which microsomal CLint [4] does the source give for `Cc1c(C(=O)Nc2cc(-c3cccnc3)ccn2)cc(C2CC2)n1C` here?
**A.** Its microsomal CLint is 388 µL/min/mg.

**Q.** What about the Papp [2] of the same compound?
**A.** The Papp was 13.5 ×10⁻⁶ cm/s.

**Q.** What about the solubility kinetic [3] of the same compound?
**A.** Its solubility kinetic is 176 µM (≈ 58.5 µg/mL).

**Q.** With `Cc1cc(OCc2ccccc2)ccc1NS(=O)(=O)c1ccc(Cl)cc1C(=O)O` as the compound, how does the logD read?
**A.** Its logD is 2.7.

**Q.** What about the microsomal CLint [1] of the same compound?
**A.** Its microsomal CLint is 22.3 µL/min/mg.

**Q.** And the Papp [2]?
**A.** Its Papp is 4.61 ×10⁻⁶ cm/s.

**Q.** And the solubility kinetic [3]?
**A.** The solubility kinetic was 394 µM (≈ 170 µg/mL).

**Q.** For `Cn1c(=O)[nH]c2c(C(=O)Nc3ccc4c(c3)CNC4)cc(Br)cc21`, which microsomal CLint [4] is on record?
**A.** Its microsomal CLint is 12.5 µL/min/mg.

**Q.** What about the logD of the same compound?
**A.** The logD was 0.5.

**Q.** And the Papp [2]?
**A.** Its Papp is 0.805 ×10⁻⁶ cm/s.

**Q.** What about the solubility kinetic [3] of the same compound?
**A.** The solubility kinetic was 161 µM (≈ 62.3 µg/mL).

**Q.** For `Cn1cc2c(C(=O)Nc3ccc4c(c3)CNC4)cc(F)cc2n1`, which microsomal CLint [4] is on record?
**A.** Its microsomal CLint is 18.2 µL/min/mg.

**Q.** What about the logD of the same compound?
**A.** The logD was 0.2.

**Q.** What about the Papp [2] of the same compound?
**A.** Its Papp is 3.4 ×10⁻⁶ cm/s.

**Q.** And the solubility kinetic [3]?
**A.** Its solubility kinetic is 309 µM (≈ 95.9 µg/mL).

**Q.** Which microsomal CLint [4] does the source give for `N#Cc1cccc(-c2nc3c(C(=O)Nc4ccc5c(c4)CNC5)cc(F)cc3[nH]2)c1` here?
**A.** The microsomal CLint was 22 µL/min/mg.

**Q.** What about the logD of the same compound?
**A.** The logD was 2.

**Q.** And the solubility kinetic [3]?
**A.** Its solubility kinetic is 3 µM (≈ 1.19 µg/mL).

**Q.** What does the source list for `NCCc1ccc(NC(=O)c2cc(Cl)cc(NC(=O)OCc3ccccc3)c2)cc1`?
**A.** logD: 2.9; microsomal CLint [1]: 17.5 µL/min/mg; Papp [2]: 0.791 ×10⁻⁶ cm/s; solubility kinetic [3]: 88 µM (≈ 37.3 µg/mL)

**Q.** With `NCc1cccc(NC(=O)CN(C(=O)OCc2ccccc2)c2ccc(OCc3ccccc3)cc2)c1` as the compound, how does the logD read?
**A.** The logD was 2.9.

**Q.** What about the microsomal CLint [1] of the same compound?
**A.** Its microsomal CLint is 11 µL/min/mg.

**Q.** And the Papp [2]?
**A.** The Papp was 0.899 ×10⁻⁶ cm/s.

**Q.** What about the solubility kinetic [3] of the same compound?
**A.** Its solubility kinetic is 56 µM (≈ 27.8 µg/mL).

**Q.** Which logD does the source give for `NCc1cccc(NC(=O)c2cc(Cl)cc(CN)c2)c1` here?
**A.** Its logD is -0.6.

**Q.** What about the microsomal CLint [1] of the same compound?
**A.** The microsomal CLint was 21 µL/min/mg.

**Q.** And the Papp [2]?
**A.** The Papp was 1.96 ×10⁻⁶ cm/s.

**Q.** And the solubility kinetic [3]?
**A.** Its solubility kinetic is 375 µM (≈ 109 µg/mL).

**Q.** For `NCc1cccc(NC(=O)c2cc(OCc3ccccc3)ccc2CNC(=O)OCc2ccccc2)c1`, which logD is on record?
**A.** Its logD is 2.8.

**Q.** What about the microsomal CLint [1] of the same compound?
**A.** The microsomal CLint was 21 µL/min/mg.

**Q.** What about the Papp [2] of the same compound?
**A.** The Papp was 1.75 ×10⁻⁶ cm/s.

**Q.** And the solubility kinetic [3]?
**A.** Its solubility kinetic is 14 µM (≈ 6.94 µg/mL).

**Q.** Which results are given for `Nc1nc(-c2ccccc2)nc2[nH]nc(Nc3ccc(C(F)(F)F)cc3)c12`?
**A.** microsomal CLint [4]: 11.2 µL/min/mg; Papp [2]: 1.76 ×10⁻⁶ cm/s; solubility kinetic [3]: 2 µM (≈ 0.741 µg/mL)

**Q.** For `O=C(Nc1cc(Cl)cc(C(=O)Nc2ccc3c(c2)CNC3)c1)OCc1ccccc1`, which logD is on record?
**A.** The logD was 2.8.

**Q.** What about the microsomal CLint [1] of the same compound?
**A.** The microsomal CLint was 12.7 µL/min/mg.

**Q.** What about the Papp [2] of the same compound?
**A.** The Papp was 1.25 ×10⁻⁶ cm/s.

**Q.** What about the solubility kinetic [3] of the same compound?
**A.** The solubility kinetic was 35 µM (≈ 14.8 µg/mL).

**Q.** For `O=C(Nc1cc(Cl)cc(C(=O)Nc2cccc(-n3nn[nH]c3=O)c2)c1)OCc1ccccc1`, which logD is on record?
**A.** Its logD is 3.8.

**Q.** And the microsomal CLint [1]?
**A.** Its microsomal CLint is 11.2 µL/min/mg.

**Q.** And the Papp [2]?
**A.** The Papp was 9.46 ×10⁻⁶ cm/s.

**Q.** What about the solubility kinetic [3] of the same compound?
**A.** Its solubility kinetic is 107 µM (≈ 49.7 µg/mL).

**Q.** Which microsomal CLint [4] does the source give for `O=C(Nc1cc2c(c(-c3c[nH]c(=O)c(F)c3)c1)CNC2)c1cc(F)cc2[nH]ncc12` here?
**A.** The microsomal CLint was 243 µL/min/mg.

**Q.** What about the logD of the same compound?
**A.** The logD was 0.4.

**Q.** What about the Papp [2] of the same compound?
**A.** The Papp was 0.651 ×10⁻⁶ cm/s.

**Q.** What about the solubility kinetic [3] of the same compound?
**A.** Its solubility kinetic is 66 µM (≈ 26.9 µg/mL).

**Q.** With `O=C(Nc1cc2c(c(C3=CCOCC3)c1)CNC2)c1cc(F)cc2[nH]ncc12` as the compound, how does the microsomal CLint [4] read?
**A.** Its microsomal CLint is 152 µL/min/mg.

**Q.** And the logD?
**A.** The logD was 0.9.

**Q.** What about the Papp [2] of the same compound?
**A.** The Papp was 1.1 ×10⁻⁶ cm/s.

**Q.** And the solubility kinetic [3]?
**A.** Its solubility kinetic is 157 µM (≈ 59.4 µg/mL).

**Q.** Which microsomal CLint [4] does the source give for `O=C(Nc1cc2c(c(C3=CCS(=O)(=O)CC3)c1)CNC2)c1cc(F)cc2[nH]ncc12` here?
**A.** Its microsomal CLint is 96.9 µL/min/mg.

**Q.** What about the logD of the same compound?
**A.** The logD was -0.1.

**Q.** What about the Papp [2] of the same compound?
**A.** The Papp was 1.3 ×10⁻⁶ cm/s.

**Q.** And the solubility kinetic [3]?
**A.** The solubility kinetic was 141 µM (≈ 60.1 µg/mL).

**Q.** For `O=C(Nc1cc2c(cc1C1CC1)CNC2)c1cc(F)cc2[nH]ncc12`, which microsomal CLint [4] is on record?
**A.** The microsomal CLint was 86.8 µL/min/mg.

**Q.** What about the logD of the same compound?
**A.** The logD was 0.7.

**Q.** And the Papp [2]?
**A.** Its Papp is 3.41 ×10⁻⁶ cm/s.

**Q.** What about the solubility kinetic [3] of the same compound?
**A.** Its solubility kinetic is 189 µM (≈ 63.6 µg/mL).

**Q.** Which microsomal CLint [4] does the source give for `O=C(Nc1ccc2c(c1)CNC2)c1cc(Cl)cc2[nH]ncc12` here?
**A.** The microsomal CLint was 243 µL/min/mg.

**Q.** And the logD?
**A.** Its logD is 0.9.

**Q.** What about the Papp [2] of the same compound?
**A.** The Papp was 1.8 ×10⁻⁶ cm/s.

**Q.** And the solubility kinetic [3]?
**A.** The solubility kinetic was 279 µM (≈ 87.3 µg/mL).

**Q.** Which microsomal CLint [4] does the source give for `O=C(Nc1ccc2c(c1)CNC2)c1cc(Cl)cc2c1cnn2C1CCC1` here?
**A.** Its microsomal CLint is 13.4 µL/min/mg.

**Q.** And the logD?
**A.** Its logD is 2.

**Q.** And the Papp [2]?
**A.** The Papp was 1 ×10⁻⁶ cm/s.

**Q.** And the solubility kinetic [3]?
**A.** Its solubility kinetic is 172 µM (≈ 63.1 µg/mL).

**Q.** What does the source list for `O=C(Nc1ccc2c(c1)CNC2)c1cc(Cl)cc2ccncc12`?
**A.** microsomal CLint [4]: 24.5 µL/min/mg; logD: 0.6; Papp [2]: 3.42 ×10⁻⁶ cm/s; solubility kinetic [3]: 181 µM (≈ 58.6 µg/mL)

**Q.** What does the source list for `O=C(Nc1ccc2c(c1)CNC2)c1cc(Cl)cc2cn[nH]c12`?
**A.** microsomal CLint [4]: 54 µL/min/mg; logD: 1.2; Papp [2]: 4.63 ×10⁻⁶ cm/s; solubility kinetic [3]: 184 µM (≈ 57.5 µg/mL)

**Q.** With `O=C(Nc1ccc2c(c1)CNC2)c1cc(F)cc2[nH]c(-c3ccc(F)cc3)nc12` as the compound, how does the microsomal CLint [4] read?
**A.** Its microsomal CLint is 36.8 µL/min/mg.

**Q.** And the logD?
**A.** The logD was 2.9.

**Q.** And the Papp [2]?
**A.** The Papp was 0.1 ×10⁻⁶ cm/s.

**Q.** And the solubility kinetic [3]?
**A.** The solubility kinetic was 6 µM (≈ 2.34 µg/mL).

**Q.** For `O=C(Nc1ccc2c(c1)CNC2)c1cc(F)cc2[nH]ncc12`, which microsomal CLint [4] is on record?
**A.** Its microsomal CLint is 180 µL/min/mg.

**Q.** And the Papp [2]?
**A.** The Papp was 1.59 ×10⁻⁶ cm/s.

**Q.** With `O=C(Nc1ccc2c(c1)CNC2)c1cc(F)cc2c1CCC2` as the compound, how does the microsomal CLint [4] read?
**A.** Its microsomal CLint is 37.4 µL/min/mg.

**Q.** And the logD?
**A.** Its logD is 1.2.

**Q.** What about the Papp [2] of the same compound?
**A.** The Papp was 10.7 ×10⁻⁶ cm/s.

**Q.** And the solubility kinetic [3]?
**A.** Its solubility kinetic is 187 µM (≈ 55.4 µg/mL).
